What all share (assay): growth of human tumour cells (NCI), 48 h
The test system of experiment [1] is OVCAR-5.
The subject of experiment [2] is HOP-62.
The test system of experiment [3] is HOP-92.
Experiment [4] has as its system SR.
Experiment [5] has as its system CAKI-1.
For experiment [6], the system named is SK-MEL-5.
Experiment [7] relates to IGROV-1.
Experiment [8] relates to HCC 2998.
Experiment [9] concerns MCF7.
The subject of experiment [10] is HT-29.
For experiment [11], the system named is SN12C.
Experiment [12] deals with T47D.
The subject of experiment [13] is LOX IMVI.
For experiment [14], the system named is OVCAR-4.
Experiment [15] has as its system COLO 205.
Experiment [16] has as its system SW-620.
For experiment [17], the system named is MOLT-4.
Experiment [18] concerns RPMI-8226.
Experiment [19] relates to M14.
The test system of experiment [20] is NCI-H23.

The text below walks through data of ChEMBL document CHEMBL1201862, “PubChem BioAssay data set” (2004).

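Values below derive from 48-hour exposures of cells grown in 96-well plates, with endpoints linearly interpolated between the two concentrations bracketing the appropriate inhibition level. GI50 is the concentration that inhibits growth by half.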 Activity calls are given as the source filed them. Rule as the data show it: active = GI50 up to about 1.1 µM and inactive = higher.

On to `COc1ccc(-c2nc(-c3cc4ccccc4oc3=O)cs2)cc1`, for which the GI50 in experiment [1] is > 100 µM (inactive); in experiment [2], 32 µM (inactive); in experiment [3] it was 60.8 µM (inactive); in experiment [4] it was > 100 µM (inactive); in experiment [5] it was > 100 µM (inactive); in [6], > 100 µM (inactive). The GI50 in experiment [7] was 86.1 µM (inactive); in experiment [8] it was 77.8 µM (inactive); in experiment [9] it was > 100 µM (inactive); in [10], 95.9 µM (inactive); in [11] it was 44.5 µM (inactive); in experiment [12], > 100 µM (inactive). Also, the GI50 in [13], in [14], in experiment [15], in experiment [16], in [17] and in [18] was > 100 µM (inactive) throughout. In experiment [19], the GI50 was > 100 µM (inactive).
Regarding `O[C@@H]1CCC[C@@H]2NC[C@@H](c3ccc4c(c3)OCO4)[C@H]12`, the GI50 in experiment [1], in experiment [2], in experiment [3], in experiment [4], in experiment [5] and in experiment [6] was > 100 µM (inactive) throughout. Also, the GI50 in [7], in [8], in experiment [9], in experiment [10], in experiment [12] and in experiment [13] was > 100 µM (inactive) throughout. Also, the GI50 in experiment [14], in experiment [15], in [20], in experiment [16], in experiment [17] and in experiment [18] was > 100 µM (inactive) in each case. The GI50 in experiment [19] is > 100 µM (inactive).
As for `CC[C@]1(Cc2ccc(OC)c(OC)c2)C=[N+]([O-])O[C@H](OCc2ccccc2)[C@@H]1OC(C)=O`, the GI50 in experiment [1] was 59.7 µM (inactive); in experiment [2] it was 34.2 µM (inactive); in experiment [3], 23.9 µM (inactive); in [4], 24.3 µM (inactive); in experiment [5] it was 24.8 µM (inactive); in experiment [6], 27.9 µM (inactive). Besides, the GI50 in experiment [7] is 25.1 µM (inactive); in experiment [8] it was 45.7 µM (inactive); in [9] it was 29.7 µM (inactive); in [10], 29.5 µM (inactive); in [12], 20 µM (inactive); in [13], 17.5 µM (inactive). For the same molecule, the GI50 in experiment [14] is 24.1 µM (inactive); in experiment [15] it was 17.1 µM (inactive); in [20] it was 34.9 µM (inactive); in [16], 32.8 µM (inactive); in experiment [17], 6.34 µM (inactive); in [18], 18.2 µM (inactive). In addition, the GI50 in experiment [19] was 33.5 µM (inactive).
In the case of `C=C1C[C@H]2C=Nc3cc(OCCCOc4cc5c(cc4OC)C(=O)N4CC(=C)C[C@H]4C=N5)c(OC)cc3C(=O)N2C1` [SJG-136], the GI50 in experiment [2] was 0.0106 µM (active); in experiment [3], 0.00682 µM (active); in experiment [4] it was < 0.01 µM (active); in experiment [5], < 0.01 µM (active); in [6] it was < 0.01 µM (active); in experiment [7], < 0.01 µM (active). In addition, the GI50 in experiment [8] is 0.0126 µM (active); in experiment [9] it was 0.012 µM (active); in experiment [10] it was 0.0147 µM (active); in [11] it was < 0.01 µM (active); in experiment [12] it was < 0.01 µM (active); in experiment [13] it was < 0.01 µM (active). In addition, the GI50 was 0.0306 µM (active) in experiment [14]; < 0.01 µM (active) in experiment [15]; 0.00166 µM (active) in experiment [20]; 0.0123 µM (active) in [16]; 0.000136 µM (active) in experiment [17]; 0.0121 µM (active) in [18].
